Measurements as given in patent publication US20180155344A1, “TRICYCLIC PIPERIDINE COMPOUNDS” (ACTELION PHARMACEUTICALS LTD, priority 2015, published 2018).
Structures can show the parent of a compound that is named as a salt.

Target: T1, human TPH1 (Homo sapiens, UniProt P17752)
T1 sequence (P17752 1-444): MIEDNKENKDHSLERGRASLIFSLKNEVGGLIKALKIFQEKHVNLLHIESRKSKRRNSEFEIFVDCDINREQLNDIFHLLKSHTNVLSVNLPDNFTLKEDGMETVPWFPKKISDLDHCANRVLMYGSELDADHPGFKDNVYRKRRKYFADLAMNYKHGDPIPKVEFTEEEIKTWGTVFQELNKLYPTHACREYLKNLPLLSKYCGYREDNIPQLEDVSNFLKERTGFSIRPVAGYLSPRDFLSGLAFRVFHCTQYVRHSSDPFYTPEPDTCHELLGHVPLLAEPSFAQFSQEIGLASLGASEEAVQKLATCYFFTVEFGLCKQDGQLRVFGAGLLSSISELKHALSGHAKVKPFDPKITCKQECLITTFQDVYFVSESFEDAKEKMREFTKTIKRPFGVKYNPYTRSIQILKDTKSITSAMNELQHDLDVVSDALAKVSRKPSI
Assay: biochemical
Method in brief: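 Inhibition is derived from 5-hydroxy-L-tryptophan fluorescence (540 nm emission, 300 nm excitation) after perchloric acid stop, relative to DMSO vehicle. Recombinant full-length human enzyme (40-80 nM) reacts with 40 μM tryptophan plus 100 μM methyltetrahydropterin, pH 7.6 Tris/DTT/catalase, 15° C, 60 min.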

IC50	SMILES
217 nM	Cc1noc(C)c1C1c2c(nc3cc(C(F)(F)F)ccn23)CCN1C(=O)COc1ccc(CN2CCOCC2)cc1Cl (centres unmarked) [Example 3.51.2, 2-(2-chloro-4-(morpholinomethyl)phenoxy)-1-(1-(3,5-dimethylisoxazol-4-yl)-7-(trifluoromethyl)-3,4-dihydroimidazo[1,2-a:5,4-c′]dipyridin-2(1H)-yl)ethan-1-one]
90 nM	COc1ccc(C2c3c(nc4cc(C(F)(F)F)ccn34)CCN2C(=O)COc2ccc3ccccc3c2)nc1 (centres unmarked) [Example 3.52.1, 1-(1-(5-methoxypyridin-2-yl)-7-(trifluoromethyl)-3,4-dihydroimidazo[1,2-a:5,4-c′]dipyridin-2(1H)-yl)-2-(naphthalen-2-yloxy)ethan-1-one]
74 nM	COc1ccc(C2c3c(nc4cc(C(F)(F)F)ccn34)CCN2C(=O)COc2ccc(CN3CCOCC3)cc2Cl)nc1 (centres unmarked) [Example 3.52.2, 2-(2-chloro-4-(morpholinomethyl)phenoxy)-1-(1-(5-methoxypyridin-2-yl)-7-(trifluoromethyl)-3,4-dihydroimidazo[1,2-a:5,4-c′]dipyridin-2(1H)-yl)ethan-1-one]
161 nM	Cc1ncc(C2c3c(nc4cc(C(F)(F)F)ccn34)CCN2C(=O)COc2ccc3ccccc3c2)cn1 (centres unmarked) [Example 3.53.1, 1-(1-(2-methylpyrimidin-5-yl)-7-(trifluoromethyl)-3,4-dihydroimidazo[1,2-a:5,4-c′]dipyridin-2(1H)-yl)-2-(naphthalen-2-yloxy)ethan-1-one]
203 nM	CCc1ncc(C2c3c(nc4cc(C(F)(F)F)ccn34)CCN2C(=O)COc2ccc3ccccc3c2)cn1 (centres unmarked) [Example 3.54.1, 1-(1-(2-ethylpyrimidin-5-yl)-7-(trifluoromethyl)-3,4-dihydroimidazo[1,2-a:5,4-c′]dipyridin-2(1H)-yl)-2-(naphthalen-2-yloxy)ethan-1-one]
415 nM	CCc1ncc(C2c3c(nc4cc(C(F)(F)F)ccn34)CCN2C(=O)COc2ccc(CN3CCOCC3)cc2Cl)cn1 (centres unmarked) [Example 3.54.2, 2-(2-chloro-4-(morpholinomethyl)phenoxy)-1-(1-(2-ethylpyrimidin-5-yl)-7-(trifluoromethyl)-3,4-dihydroimidazo[1,2-a:5,4-c′]dipyridin-2(1H)-yl)ethan-1-one]
67 nM	COc1ncc(C2c3c(nc4cc(C(F)(F)F)ccn34)CCN2C(=O)COc2ccc3ccccc3c2)cn1 (centres unmarked) [Example 3.55.1, 1-(1-(2-methoxypyrimidin-5-yl)-7-(trifluoromethyl)-3,4-dihydroimidazo[1,2-a:5,4-c′]dipyridin-2(1H)-yl)-2-(naphthalen-2-yloxy)ethan-1-one]
266 nM	COc1ncc(C2c3c(nc4cc(C(F)(F)F)ccn34)CCN2C(=O)COc2ccc(CN3CCOCC3)cc2Cl)cn1 (centres unmarked) [Example 3.55.2, 2-(2-chloro-4-(morpholinomethyl)phenoxy)-1-(1-(2-methoxypyrimidin-5-yl)-7-(trifluoromethyl)-3,4-dihydroimidazo[1,2-a:5,4-c′]dipyridin-2(1H)-yl)ethan-1-one]
195 nM	O=C(COc1ccc2ccccc2c1)N1CCc2nc3cc(C(F)(F)F)ccn3c2C1c1ccnc(Cl)c1 (centres unmarked) [Example 3.56.1, 1-(1-(2-chloropyridin-4-yl)-7-(trifluoromethyl)-3,4-dihydroimidazo[1,2-a:5,4-c′]dipyridin-2(1H)-yl)-2-(naphthalen-2-yloxy)ethan-1-one]
295 nM	O=C(COc1ccc(CN2CCOCC2)cc1Cl)N1CCc2nc3cc(C(F)(F)F)ccn3c2C1c1ccnc(Cl)c1 (centres unmarked) [Example 3.56.2, 2-(2-chloro-4-(morpholinomethyl)phenoxy)-1-(1-(2-chloropyridin-4-yl)-7-(trifluoromethyl)-3,4-dihydroimidazo[1,2-a:5,4-c′]dipyridin-2(1H)-yl)ethan-1-one]
155 nM	Cc1cc(C2c3c(nc4cc(C(F)(F)F)ccn34)CCN2C(=O)COc2ccc3ccccc3c2)ccn1 (centres unmarked) [Example 3.57.1, 1-(1-(2-methylpyridin-4-yl)-7-(trifluoromethyl)-3,4-dihydroimidazo[1,2-a:5,4-c′]dipyridin-2(1H)-yl)-2-(naphthalen-2-yloxy)ethan-1-one]
35 nM	Cc1cc(C2c3c(nc4cc(C(F)(F)F)ccn34)CCN2C(=O)COc2ccc(CN3CCOCC3)cc2Cl)ccn1 (centres unmarked) [Example 3.57.2, 2-(2-chloro-4-(morpholinomethyl)phenoxy)-1-(1-(2-methylpyridin-4-yl)-7-(trifluoromethyl)-3,4-dihydroimidazo[1,2-a:5,4-c′]dipyridin-2(1H)-yl)ethan-1-one]
30 nM	O=C(COc1ccc(CN2CCOCC2)cc1Cl)N1CCc2nc3cc(C(F)(F)F)ccn3c2C1c1ccc(Cl)cn1 (centres unmarked) [Example 3.58.1, 2-(2-chloro-4-(morpholinomethyl)phenoxy)-1-(1-(5-chloropyridin-2-yl)-7-(trifluoromethyl)-3,4-dihydroimidazo[1,2-a:5,4-c′]dipyridin-2(1H)-yl)ethan-1-one]
22 nM	Cc1nc(C)c(C2c3c(nc4cc(C(F)(F)F)ccn34)CCN2C(=O)COc2ccc(-c3ncco3)nc2Cl)s1 (centres unmarked) [Example 3.59.1, 2-((2-chloro-6-(oxazol-2-yl)pyridin-3-yl)oxy)-1-(1-(2,4-dimethylthiazol-5-yl)-7-(trifluoromethyl)-3,4-dihydroimidazo[1,2-a:5,4-c′]dipyridin-2(1H)-yl)ethan-1-one]
42 nM	Cc1nc(C)c(C2c3c(nc4cc(C(F)(F)F)ccn34)CCN2C(=O)COc2ccc(C(=O)N(C)C3CC3)nc2Cl)s1 (centres unmarked) [Example 3.59.2, 6-chloro-N-cyclopropyl-5-(2-(1-(2,4-dimethylthiazol-5-yl)-7-(trifluoromethyl)-3,4-dihydroimidazo[1,2-a:5,4-c′]dipyridin-2(1H)-yl)-2-oxoethoxy)-N-methylpicolinamide]
32 nM	COc1ccc(C2c3c(nc4cc(C)ccn34)CCN2C(=O)COc2ccc(Cl)cc2Cl)cc1OC (centres unmarked) [Example 4.1.1, 2-(2,4-dichlorophenoxy)-1-(1-(3,4-dimethoxyphenyl)-7-methyl-3,4-dihydroimidazo[1,2-a:5,4-c′]dipyridin-2(1H)-yl)ethan-1-one]
10 nM	COc1ccc(C2c3c(nc4cc(C)ccn34)CCN2C(=O)COc2ccc3ccccc3c2)cc1OC (centres unmarked) [Example 4.1.2, 1-(1-(3,4-dimethoxyphenyl)-7-methyl-3,4-dihydroimidazo[1,2-a:5,4-c′]dipyridin-2(1H)-yl)-2-(naphthalen-2-yloxy)ethan-1-one]
10 nM	COc1ccc(C2c3c(nc4cc(C(C)(C)C)ccn34)CCN2C(=O)COc2ccc(Cl)cc2Cl)cc1OC (centres unmarked) [Example 5.1.1, 1-(7-(tert-butyl)-1-(3,4-dimethoxyphenyl)-3,4-dihydroimidazo[1,2-a:5,4-c′]dipyridin-2(1H)-yl)-2-(2,4-dichlorophenoxy)ethan-1-one]
16 nM	CCc1cc2nc3c(n2cc1C)C(c1ccc(OC)c(OC)c1)N(C(=O)COc1ccc(Cl)cc1Cl)CC3 (centres unmarked) [Example 6.1.1, 2-(2,4-dichlorophenoxy)-1-(1-(3,4-dimethoxyphenyl)-7-ethyl-8-methyl-3,4-dihydroimidazo[1,2-a:5,4-c′]dipyridin-2(1H)-yl)ethan-1-one]
9 nM	CCc1cc2nc3c(n2cc1C)C(c1ccc(OC)c(OC)c1)N(C(=O)COc1ccc2ccccc2c1)CC3 (centres unmarked) [Example 6.1.2, 1-(1-(3,4-dimethoxyphenyl)-7-ethyl-8-methyl-3,4-dihydroimidazo[1,2-a:5,4-c′]dipyridin-2(1H)-yl)-2-(naphthalen-2-yloxy)ethan-1-one]
9 nM	CCc1cc2nc3c(n2cc1C)C(c1ccc(OC)c(OC)c1)N(C(=O)COc1ccc2ccccc2c1CC)CC3 (centres unmarked) [Example 6.1.3, 1-(1-(3,4-dimethoxyphenyl)-7-ethyl-8-methyl-3,4-dihydroimidazo[1,2-a:5,4-c′]dipyridin-2(1H)-yl)-2-((1-ethylnaphthalen-2-yl)oxy)ethan-1-one]
8 nM	CCc1cc2nc3c(n2cc1C)C(c1ccc(OC)c(OC)c1)N(C(=O)COc1ccc2ccccc2c1C)CC3 (centres unmarked) [Example 6.1.4, 1-(1-(3,4-dimethoxyphenyl)-7-ethyl-8-methyl-3,4-dihydroimidazo[1,2-a:5,4-c′]dipyridin-2(1H)-yl)-2-((1-methylnaphthalen-2-yl)oxy)ethan-1-one hydrochloride]
89 nM	COc1ccc(C2c3c(nc4ccc(C)cn34)CCN2C(=O)COc2ccc(Cl)cc2Cl)cc1OC (centres unmarked) [Example 7.1.1, 2-(2,4-dichlorophenoxy)-1-(1-(3,4-dimethoxyphenyl)-8-methyl-3,4-dihydroimidazo[1,2-a:5,4-c′]dipyridin-2(1H)-yl)ethan-1-one]
38 nM	COc1ccc(C2c3c(nc4ccc(C)cn34)CCN2C(=O)COc2ccc3ccccc3c2)cc1OC (centres unmarked) [Example 7.1.2, 1-(1-(3,4-dimethoxyphenyl)-8-methyl-3,4-dihydroimidazo[1,2-a:5,4-c′]dipyridin-2(1H)-yl)-2-(naphthalen-2-yloxy)ethan-1-one]
38 nM	COc1ccc(C2c3c(nc4ccc(-c5ccccc5)cn34)CCN2C(=O)COc2ccc3ccccc3c2)cc1OC (centres unmarked) [Example 8.1.1, 1-(1-(3,4-dimethoxyphenyl)-8-phenyl-3,4-dihydroimidazo[1,2-a:5,4-c′]dipyridin-2(1H)-yl)-2-(naphthalen-2-yloxy)ethan-1-one]
145 nM	COc1ccc(C2c3c(nc4ccc(Cl)cn34)CCN2C(=O)COc2ccc3ccccc3c2)cc1OC (centres unmarked) [Example 9.1.1, 1-(8-chloro-1-(3,4-dimethoxyphenyl)-3,4-dihydroimidazo[1,2-a:5,4-c′]dipyridin-2(1H)-yl)-2-(naphthalen-2-yloxy)ethan-1-one]
